Experimental data: US20100087623A1, “Method of extracting proteins and peptides from nano pearl powder” (priority 2008, published 2010)
“And” between values parts separate entries of the source, which are not always exact repeats. Equal entries are not always repeated.

Tested on: tyrosinase (tyramine acid enzyme)
Experiment: Inhibition of tyrosinase (tyramine acid enzyme) activity, dopachrome growth
Assay type: biochemical
Settings: 2 mg/mL or 1 mg/mL, 37° C., pH 6.8
Experimental: Pearl powder solution is subjected to filter by employing a device called Centriprep YM3. […] In this experiment, effects of tyrosinase activation (i.e., dopachrome growth) caused by each of soluble organic compound extract of nono pearl powder and soluble organic compound extract of micro pearl powder are evaluated. Also, for pearl powder of the same effects of tyrosinase activation caused by organic compounds having a molecular weight more than 5 kDa and by organic compounds having a molecular weight less than 5 kDa are evaluated.
Referring to FIG. 11 and Table 7 again, experiment conditions are concentration of 1 mg/mL, temperature of 37° C., and pH value of 6.8.

## OC[C@H]1O[C@@H](Oc2ccc(O)cc2)[C@H](O)[C@@H](O)[C@@H]1O [arbutin]
0 minute
  Inhibition (%) of tyramine acid enzyme (dopachrome growth): 0 ± 0%
5 minute
  Inhibition (%) of tyramine acid enzyme (dopachrome growth): 36.5 ± 1.9%
10 minute
  Inhibition (%) of tyramine acid enzyme (dopachrome growth): 48.6 ± 0.7%
15 minute
  Inhibition (%) of tyramine acid enzyme (dopachrome growth): 54.3 ± 1.0%
30 minute
  Inhibition (%) of tyramine acid enzyme (dopachrome growth): 53% and 54.7 ± 0.9%
45 minute
  Inhibition (%) of tyramine acid enzyme (dopachrome growth): 37.1 ± 1.3%
60 minute
  Inhibition (%) of tyramine acid enzyme (dopachrome growth): 21% and 21.6 ± 1.9%
